Experimental data published in the supplement of paper PMC11208160.
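Also: IS621 recombinase and bridge RNA in Escherichia coli cells.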

Experiment: recombinant barcode read abundance after kanamycin selection (control-corrected) (log10(CPM+1)); higher = more efficient recombination; sequences stand for … in AGTGCAGAGAAAATCGGCCAGTTTTCTCTGCCTGCAGTCCGCATGCCGT…AGATTTATGCAGCGGACTGCCTTTCTCCCAAAGTGATAAACCGGACAGTATCATGGACCGGTTTTCCCGGTAATCCGTATTTGCAAGGTTGGTTTCACT; site = the 11-nt target
Outline: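 Pooled oligos, each joining a target to an IS621 bridge RNA target-binding loop, were cloned and co-electroporated with a donor plasmid into E. coli. Selective plates carried chloramphenicol/ampicillin/kanamycin and 0.1 mM IPTG, while chloramphenicol/ampicillin LB agar served as control, with two replicates of each. Recombination efficiency rests on averaged, control-corrected counts per million of barcodes at recombinant junctions, shown as log10(CPM+1).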
For “CATTATCCTTGGGTTCTAACCTGTTGCCT (site CAATATCCTAG)”, the “recombinant barcode read abundance (log10)” value was 0.0661.
For “CATTATCCTTGGGTTCTAACCTGTTGCCT (site CACTATCCTAG)”, the “recombinant barcode read abundance (log10)” value was 0.161.
With “CATTATCCTTGGGTTCTAACCTGTTGCCT (site CAGTATCCTAG)” the “recombinant barcode read abundance (log10)” value was 0.0928.
With “CATTATCCTTGGGTTCTAACCTGTTGCCT (site CATTATCCTAG)” the “recombinant barcode read abundance (log10)” value was 0.136.
In the case of “CATTCAACTTGGGTTCTAACCTGTTGCCG (site CATTCAACTAG)”, the “recombinant barcode read abundance (log10)” value is reported as 0.0546.
For “CATTCAACTTGGGTTCTAACCTGTTGCCG (site CATTCAACTCG)”, the “recombinant barcode read abundance (log10)” value was 0.0716.
In the case of “CCAAGATCTTGGGTTCTAACCTGTTGCCT (site CAAAGATCTAG)”, the “recombinant barcode read abundance (log10)” value is reported as 0.178.
In the case of “CCAAGATCTTGGGTTCTAACCTGTTGCCT (site CCAAGATCTAG)”, the “recombinant barcode read abundance (log10)” value is reported as 0.556.
In the case of “CCAAGATCTTGGGTTCTAACCTGTTGCCT (site CGAAGATCTAG)”, the “recombinant barcode read abundance (log10)” value is reported as 0.201.
In the case of “CCAAGATCTTGGGTTCTAACCTGTTGCCT (site CTAAGATCTAG)”, the “recombinant barcode read abundance (log10)” value is reported as 0.46.
In the case of “CCAAGCGCTTGGGTTCTAACCTGTTGCCT (site CCAAGCACTAG)”, the “recombinant barcode read abundance (log10)” value is reported as 0.589.
In the case of “CCAAGCGCTTGGGTTCTAACCTGTTGCCT (site CCAAGCCCTAG)”, the “recombinant barcode read abundance (log10)” value is reported as 0.0283.
For “CCAAGCGCTTGGGTTCTAACCTGTTGCCT (site CCAAGCGCTAG)”, the “recombinant barcode read abundance (log10)” value was 0.769.
For “CCAAGCGCTTGGGTTCTAACCTGTTGCCT (site CCAAGCTCTAG)”, the “recombinant barcode read abundance (log10)” value was 0.209.
In the case of “CCAAGGGCTTGGGTTCTAACCTGTTGCAG (site CCAAGGGCTCA)”, the “recombinant barcode read abundance (log10)” value is reported as 1.09.
For “CCAAGGGCTTGGGTTCTAACCTGTTGCAG (site CCAAGGGCTCC)”, the “recombinant barcode read abundance (log10)” value was 0.546.
For “CCAAGGGCTTGGGTTCTAACCTGTTGCAG (site CCAAGGGCTCG)”, the “recombinant barcode read abundance (log10)” value was 0.537.
With “CCAAGGGCTTGGGTTCTAACCTGTTGCAG (site CCAAGGGCTCT)” the “recombinant barcode read abundance (log10)” value was 2.13.
With “CCAAGGGCTTGGGTTCTAACCTGTTGCCG (site CCAAGGGCTCA)” the “recombinant barcode read abundance (log10)” value was 0.0491.
For “CCAAGGGCTTGGGTTCTAACCTGTTGCCG (site CCAAGGGCTCC)”, the “recombinant barcode read abundance (log10)” value was 0.211.
In the case of “CCAAGGGCTTGGGTTCTAACCTGTTGCCG (site CCAAGGGCTCG)”, the “recombinant barcode read abundance (log10)” value is reported as 0.143.
In the case of “CCAAGGGCTTGGGTTCTAACCTGTTGCCG (site CCAAGGGCTCT)”, the “recombinant barcode read abundance (log10)” value is reported as 0.33.
For “CCAAGTCCTTGGGTTCTAACCTGTTGCCA (site CCAAGTCCTTG)”, the “recombinant barcode read abundance (log10)” value was 0.0554.
With “CCAAGTCCTTGGGTTCTAACCTGTTGCCA (site GTTCAGACTAA)” the “recombinant barcode read abundance (log10)” value was 0.031.
With “CCAATTGCTTGGGTTCTAACCTGTTGCCT (site CCAATTGCTAG)” the “recombinant barcode read abundance (log10)” value was 0.108.
In the case of “CCAATTGCTTGGGTTCTAACCTGTTGCCT (site CTAATTGCTAG)”, the “recombinant barcode read abundance (log10)” value is reported as 0.0541.
With “CCACTCCCTTGGGTTCTAACCTGTTGCCT (site CCACTACCTAG)” the “recombinant barcode read abundance (log10)” value was 0.166.
With “CCACTCCCTTGGGTTCTAACCTGTTGCCT (site CCACTCCCTAG)” the “recombinant barcode read abundance (log10)” value was 0.0427.
For “CCACTCCCTTGGGTTCTAACCTGTTGCCT (site CCACTGCCTAG)”, the “recombinant barcode read abundance (log10)” value was 0.0666.
In the case of “CCACTCCCTTGGGTTCTAACCTGTTGCCT (site CCACTTCCTAG)”, the “recombinant barcode read abundance (log10)” value is reported as 0.279.
For “CCACTTCCTTGGGTTCTAACCTGTTGCCT (site CCACTACCTAG)”, the “recombinant barcode read abundance (log10)” value was 0.233.
In the case of “CCACTTCCTTGGGTTCTAACCTGTTGCCT (site CCACTCCCTAG)”, the “recombinant barcode read abundance (log10)” value is reported as 0.176.
In the case of “CCACTTCCTTGGGTTCTAACCTGTTGCCT (site CCACTGCCTAG)”, the “recombinant barcode read abundance (log10)” value is reported as 0.0522.
With “CCACTTCCTTGGGTTCTAACCTGTTGCCT (site CCACTTCCTAG)” the “recombinant barcode read abundance (log10)” value was 0.0928.
For “CCAGAAGCTTGGGTTCTAACCTGTTGCGT (site CCAGAAGCTAC)”, the “recombinant barcode read abundance (log10)” value was 0.279.
With “CCAGAAGCTTGGGTTCTAACCTGTTGCGT (site CCAGTAGCTCC)” the “recombinant barcode read abundance (log10)” value was 0.434.
With “CCAGCTGCTTGGGTTCTAACCTGTTGCCT (site CCAGCTGCTAG)” the “recombinant barcode read abundance (log10)” value was 1.11.
For “CCAGCTGCTTGGGTTCTAACCTGTTGCCT (site GTGCGCTCTGC)”, the “recombinant barcode read abundance (log10)” value was 0.137.
With “CCAGGAGCTTGGGTTCTAACCTGTTGCAG (site CCAGGAGCTCT)” the “recombinant barcode read abundance (log10)” value was 0.312.
With “CCAGGAGCTTGGGTTCTAACCTGTTGCAG (site TCTGGAGCTCT)” the “recombinant barcode read abundance (log10)” value was 0.141.
In the case of “CCAGGGACTTGGGTTCTAACCTGTTGCCT (site CCAAGGACTAG)”, the “recombinant barcode read abundance (log10)” value is reported as 0.683.
With “CCAGGGACTTGGGTTCTAACCTGTTGCCT (site CCACGGACTAG)” the “recombinant barcode read abundance (log10)” value was 0.294.
In the case of “CCAGGGACTTGGGTTCTAACCTGTTGCCT (site CCAGGGACTAG)”, the “recombinant barcode read abundance (log10)” value is reported as 1.31.
In the case of “CCAGGGACTTGGGTTCTAACCTGTTGCCT (site CCATGGACTAG)”, the “recombinant barcode read abundance (log10)” value is reported as 0.0751.
For “CCAGTTACTTGGGTTCTAACCTGTTGCCT (site CCAGTAACTAG)”, the “recombinant barcode read abundance (log10)” value was 0.104.
For “CCAGTTACTTGGGTTCTAACCTGTTGCCT (site CCAGTCACTAG)”, the “recombinant barcode read abundance (log10)” value was 0.132.
In the case of “CCAGTTACTTGGGTTCTAACCTGTTGCCT (site CCAGTGACTAG)”, the “recombinant barcode read abundance (log10)” value is reported as 0.195.
In the case of “CCAGTTACTTGGGTTCTAACCTGTTGCCT (site CCAGTTACTAG)”, the “recombinant barcode read abundance (log10)” value is reported as 0.351.
In the case of “CCATACCCTTGGGTTCTAACCTGTTGCTA (site ATCATAGCTGC)”, the “recombinant barcode read abundance (log10)” value is reported as 0.019.
With “CCATACCCTTGGGTTCTAACCTGTTGCTA (site CCATACCCTTA)” the “recombinant barcode read abundance (log10)” value was 0.884.
In the case of “CCATAGTCTTGGGTTCTAACCTGTTGCTT (site CCATAGTCTAA)”, the “recombinant barcode read abundance (log10)” value is reported as 0.732.
With “CCATAGTCTTGGGTTCTAACCTGTTGCTT (site GCACAGTCTAA)” the “recombinant barcode read abundance (log10)” value was 0.052.
With “CCATCCTCTTGGGTTCTAACCTGTTGCTT (site CAATCCTCTAA)” the “recombinant barcode read abundance (log10)” value was 0.04.
In the case of “CCATCCTCTTGGGTTCTAACCTGTTGCTT (site CCATCCTCTAA)”, the “recombinant barcode read abundance (log10)” value is reported as 0.0749.
In the case of “CCATGGTCTTGGGTTCTAACCTGTTGCTT (site CCATACTCTAA)”, the “recombinant barcode read abundance (log10)” value is reported as 0.01.
In the case of “CCATGGTCTTGGGTTCTAACCTGTTGCTT (site CCATGGTCTAA)”, the “recombinant barcode read abundance (log10)” value is reported as 1.78.
With “CCGAATCCTTGGGTTCTAACCTGTTGCCT (site CCGAATCCTAG)” the “recombinant barcode read abundance (log10)” value was 0.355.
For “CCGAATCCTTGGGTTCTAACCTGTTGCCT (site CCGACTCCTAG)”, the “recombinant barcode read abundance (log10)” value was 0.361.
For “CCGAATCCTTGGGTTCTAACCTGTTGCCT (site CCGAGTCCTAG)”, the “recombinant barcode read abundance (log10)” value was 0.122.
With “CCGAATCCTTGGGTTCTAACCTGTTGCCT (site CCGATTCCTAG)” the “recombinant barcode read abundance (log10)” value was 0.199.
For “CCGACTTCTTGGGTTCTAACCTGTTGCCT (site CAGACTTCTAG)”, the “recombinant barcode read abundance (log10)” value was 0.219.
With “CCGACTTCTTGGGTTCTAACCTGTTGCCT (site CCGACTTCTAG)” the “recombinant barcode read abundance (log10)” value was 0.164.
For “CCGACTTCTTGGGTTCTAACCTGTTGCCT (site CGGACTTCTAG)”, the “recombinant barcode read abundance (log10)” value was 0.244.
With “CCGACTTCTTGGGTTCTAACCTGTTGCCT (site CTGACTTCTAG)” the “recombinant barcode read abundance (log10)” value was 0.129.
With “CCGAGAGCTTGGGTTCTAACCTGTTGCCT (site CAGAGAGCTAG)” the “recombinant barcode read abundance (log10)” value was 0.0908.
For “CCGAGAGCTTGGGTTCTAACCTGTTGCCT (site CCGAGAGCTAG)”, the “recombinant barcode read abundance (log10)” value was 0.454.
With “CCGAGAGCTTGGGTTCTAACCTGTTGCCT (site CGGAGAGCTAG)” the “recombinant barcode read abundance (log10)” value was 0.0785.
In the case of “CCGAGAGCTTGGGTTCTAACCTGTTGCCT (site CTGAGAGCTAG)”, the “recombinant barcode read abundance (log10)” value is reported as 0.0419.
In the case of “CCGCATGCTTGGGTTCTAACCTGTTGCCT (site CCGAATGCTAG)”, the “recombinant barcode read abundance (log10)” value is reported as 0.0372.
With “CCGCATGCTTGGGTTCTAACCTGTTGCCT (site CCGCATGCTAG)” the “recombinant barcode read abundance (log10)” value was 0.234.
With “CCGCATGCTTGGGTTCTAACCTGTTGCCT (site CCGGATGCTAG)” the “recombinant barcode read abundance (log10)” value was 0.0172.
With “CCGCATGCTTGGGTTCTAACCTGTTGCCT (site CCGTATGCTAG)” the “recombinant barcode read abundance (log10)” value was 0.0765.
In the case of “CCGCCTCCTTGGGTTCTAACCTGTTGCAT (site CCGCCTCCTAT)”, the “recombinant barcode read abundance (log10)” value is reported as 0.0412.
For “CCGCCTCCTTGGGTTCTAACCTGTTGCAT (site CGTCCTCCTAT)”, the “recombinant barcode read abundance (log10)” value was 0.26.
With “CCGCGGACTTGGGTTCTAACCTGTTGCTA (site CCGCGGACTTA)” the “recombinant barcode read abundance (log10)” value was 0.989.
In the case of “CCGCGGACTTGGGTTCTAACCTGTTGCTA (site TAAAACCCTAT)”, the “recombinant barcode read abundance (log10)” value is reported as 0.0107.
In the case of “CCGCGGACTTGGGTTCTAACCTGTTGCTT (site CCGCAGACTAA)”, the “recombinant barcode read abundance (log10)” value is reported as 0.106.
With “CCGCGGACTTGGGTTCTAACCTGTTGCTT (site CCGCGGACTAA)” the “recombinant barcode read abundance (log10)” value was 0.578.
With “CCGGCCACTTGGGTTCTAACCTGTTGCCT (site CAGGCCACTAG)” the “recombinant barcode read abundance (log10)” value was 0.359.
For “CCGGCCACTTGGGTTCTAACCTGTTGCCT (site CCGGCCACTAG)”, the “recombinant barcode read abundance (log10)” value was 1.82.
With “CCGGCCACTTGGGTTCTAACCTGTTGCCT (site CGGGCCACTAG)” the “recombinant barcode read abundance (log10)” value was 0.164.
For “CCGGCCACTTGGGTTCTAACCTGTTGCCT (site CTGGCCACTAG)”, the “recombinant barcode read abundance (log10)” value was 0.155.
For “CCGGGATCTTGGGTTCTAACCTGTTGCCT (site ACGGGATCTAG)”, the “recombinant barcode read abundance (log10)” value was 0.323.
In the case of “CCGGGATCTTGGGTTCTAACCTGTTGCCT (site CCGGGATCTAG)”, the “recombinant barcode read abundance (log10)” value is reported as 1.22.
For “CCGGGATCTTGGGTTCTAACCTGTTGCCT (site GCGGGATCTAG)”, the “recombinant barcode read abundance (log10)” value was 0.161.
In the case of “CCGGGATCTTGGGTTCTAACCTGTTGCCT (site TCGGGATCTAG)”, the “recombinant barcode read abundance (log10)” value is reported as 0.231.
